# Measurements from paper PMC9299122, “Terpene synthases in cucumber (Cucumis sativus) and their contribution to herbivore‐induced volatile terpenoid emission” (The New Phytologist, 2021).
# Tests used:
# Assay in all cases: product formation, stir-bar GC-MS, recombinant E. coli protein
# Assay type in all cases: cell-based
# [1] = biological target: T1, CsTPS24 (Cucumis sativus, UniProt Q9FRX5); conditions: 30 °C, 60 min
# T1 construct: gene CsKS1; full-length cDNA in pACYCDuet, E. coli BL21(DE3); gene on chromosome VII; predicted plastid transit peptide
# T1 sequence (Q9FRX5 1-785): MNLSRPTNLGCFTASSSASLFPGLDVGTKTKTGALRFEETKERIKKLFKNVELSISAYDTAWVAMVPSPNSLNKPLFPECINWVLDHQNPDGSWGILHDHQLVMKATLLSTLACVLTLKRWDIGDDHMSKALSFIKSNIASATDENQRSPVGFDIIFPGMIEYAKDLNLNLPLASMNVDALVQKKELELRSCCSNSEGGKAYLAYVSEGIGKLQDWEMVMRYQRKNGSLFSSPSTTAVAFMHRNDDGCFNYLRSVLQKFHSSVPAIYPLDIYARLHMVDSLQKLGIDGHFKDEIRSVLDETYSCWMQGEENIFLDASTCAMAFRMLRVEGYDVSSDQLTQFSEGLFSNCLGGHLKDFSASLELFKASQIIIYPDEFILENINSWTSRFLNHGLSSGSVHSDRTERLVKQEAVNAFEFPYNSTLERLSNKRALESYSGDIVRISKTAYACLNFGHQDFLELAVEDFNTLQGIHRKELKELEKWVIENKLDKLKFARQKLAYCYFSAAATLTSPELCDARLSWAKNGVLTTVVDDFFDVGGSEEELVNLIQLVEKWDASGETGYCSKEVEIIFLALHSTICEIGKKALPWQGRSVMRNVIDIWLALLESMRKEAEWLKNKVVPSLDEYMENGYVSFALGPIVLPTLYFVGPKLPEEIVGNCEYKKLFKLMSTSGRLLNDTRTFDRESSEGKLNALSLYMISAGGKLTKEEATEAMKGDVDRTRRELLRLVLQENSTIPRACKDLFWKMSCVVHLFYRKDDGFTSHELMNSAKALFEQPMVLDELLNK
# [2] = biological target: T2, CsTPS15 (Cucumis sativus, UniProt A0A0A0L782); conditions: 30 °C, 60 min; 10 µM substrate
# T2 construct: gene Csa_3G040850; full-length cDNA in pACYCDuet, E. coli BL21(DE3); predicted plastid transit peptide
# T2 sequence (A0A0A0L782 1-568): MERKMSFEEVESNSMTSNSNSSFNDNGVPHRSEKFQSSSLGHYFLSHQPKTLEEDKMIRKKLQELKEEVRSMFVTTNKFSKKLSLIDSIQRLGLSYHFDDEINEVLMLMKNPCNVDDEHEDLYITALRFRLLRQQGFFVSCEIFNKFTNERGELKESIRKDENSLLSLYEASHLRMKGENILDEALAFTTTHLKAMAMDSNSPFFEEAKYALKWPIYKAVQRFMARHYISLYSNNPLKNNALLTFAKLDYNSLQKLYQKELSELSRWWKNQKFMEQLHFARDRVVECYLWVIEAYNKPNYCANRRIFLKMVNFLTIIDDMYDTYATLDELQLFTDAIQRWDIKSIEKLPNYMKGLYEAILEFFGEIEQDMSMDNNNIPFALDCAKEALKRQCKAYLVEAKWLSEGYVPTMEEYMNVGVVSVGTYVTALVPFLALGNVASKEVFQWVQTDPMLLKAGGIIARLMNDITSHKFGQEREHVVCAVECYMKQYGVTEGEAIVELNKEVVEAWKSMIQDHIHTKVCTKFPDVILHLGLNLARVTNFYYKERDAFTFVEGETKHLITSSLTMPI
# [3] = biological target: T3, CsTPS11 (Cucumis sativus, UniProt A0A0A0LMX2); conditions: 30 °C, 60 min; 10 µM substrate
# T3 construct: gene Csa_2G299920; full-length cDNA in pACYCDuet, E. coli BL21(DE3); predicted plastid transit peptide
# T3 sequence (A0A0A0LMX2 1-474): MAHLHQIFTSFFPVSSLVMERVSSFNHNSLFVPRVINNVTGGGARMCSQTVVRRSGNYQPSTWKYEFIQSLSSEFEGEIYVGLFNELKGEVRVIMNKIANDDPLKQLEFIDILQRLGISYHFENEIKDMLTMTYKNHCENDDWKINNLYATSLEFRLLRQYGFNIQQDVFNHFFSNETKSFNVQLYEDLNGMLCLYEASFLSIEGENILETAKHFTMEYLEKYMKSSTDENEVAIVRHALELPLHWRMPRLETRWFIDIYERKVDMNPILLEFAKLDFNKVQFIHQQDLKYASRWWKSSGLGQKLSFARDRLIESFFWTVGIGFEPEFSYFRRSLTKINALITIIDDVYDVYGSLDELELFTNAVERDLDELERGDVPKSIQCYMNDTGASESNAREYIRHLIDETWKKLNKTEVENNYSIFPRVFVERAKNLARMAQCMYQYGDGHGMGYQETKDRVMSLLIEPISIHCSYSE
# [4] = biological target: T4, CsTPS19 (Cucumis sativus, UniProt A0A0A0L6G4); conditions: 30 °C, 60 min; 10 µM substrate
# T4 construct: gene Csa_3G095040; full-length cDNA in pACYCDuet, E. coli BL21(DE3); cytosolic
# T4 sequence (A0A0A0L6G4 entry or part of it): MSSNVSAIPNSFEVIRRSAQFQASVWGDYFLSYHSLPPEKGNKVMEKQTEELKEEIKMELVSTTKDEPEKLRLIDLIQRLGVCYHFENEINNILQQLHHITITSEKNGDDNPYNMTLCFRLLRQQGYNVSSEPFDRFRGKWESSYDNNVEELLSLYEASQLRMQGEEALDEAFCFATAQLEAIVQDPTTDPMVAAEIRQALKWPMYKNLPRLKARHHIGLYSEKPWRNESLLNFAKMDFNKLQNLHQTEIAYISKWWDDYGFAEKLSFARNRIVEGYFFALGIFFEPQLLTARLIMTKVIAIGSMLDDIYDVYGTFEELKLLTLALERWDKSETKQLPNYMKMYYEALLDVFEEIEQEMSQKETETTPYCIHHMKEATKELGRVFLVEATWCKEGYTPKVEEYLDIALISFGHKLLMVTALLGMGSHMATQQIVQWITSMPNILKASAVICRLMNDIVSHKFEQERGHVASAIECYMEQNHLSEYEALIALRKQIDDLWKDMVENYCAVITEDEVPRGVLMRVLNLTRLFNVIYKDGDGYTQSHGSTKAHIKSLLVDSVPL
# [5] = biological target: T5, CsTPS14 (Cucumis sativus, UniProt A0A0A0L1X6); conditions: 30 °C, 60 min; 10 µM substrate
# T5 construct: gene Csa_3G039850; full-length cDNA in pACYCDuet, E. coli BL21(DE3); no targeting peptide predicted
# T5 sequence (A0A0A0L1X6 1-562): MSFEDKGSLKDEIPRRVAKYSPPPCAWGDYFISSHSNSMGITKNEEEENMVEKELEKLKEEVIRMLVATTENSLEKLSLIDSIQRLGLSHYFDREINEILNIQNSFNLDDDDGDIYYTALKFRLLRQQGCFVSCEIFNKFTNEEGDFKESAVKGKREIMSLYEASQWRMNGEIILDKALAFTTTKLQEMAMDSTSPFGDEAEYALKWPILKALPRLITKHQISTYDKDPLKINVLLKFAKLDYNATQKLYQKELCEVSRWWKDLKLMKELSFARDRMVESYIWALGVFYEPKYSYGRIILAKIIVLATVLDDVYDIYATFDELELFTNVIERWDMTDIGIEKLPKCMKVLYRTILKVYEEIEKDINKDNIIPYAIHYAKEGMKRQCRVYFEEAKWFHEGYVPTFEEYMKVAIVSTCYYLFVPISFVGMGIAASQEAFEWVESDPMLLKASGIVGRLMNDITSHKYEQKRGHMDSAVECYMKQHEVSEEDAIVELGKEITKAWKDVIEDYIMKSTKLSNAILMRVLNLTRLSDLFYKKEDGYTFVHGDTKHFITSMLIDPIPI
# [6] = biological target: T6, CsTPS12 (Cucumis sativus, UniProt A0A0A0LN25); conditions: 30 °C, 60 min; 10 µM substrate
# T6 construct: gene Csa_2G427840; full-length cDNA in pACYCDuet, E. coli BL21(DE3); no targeting peptide predicted
# T6 sequence (A0A0A0LN25 1-565): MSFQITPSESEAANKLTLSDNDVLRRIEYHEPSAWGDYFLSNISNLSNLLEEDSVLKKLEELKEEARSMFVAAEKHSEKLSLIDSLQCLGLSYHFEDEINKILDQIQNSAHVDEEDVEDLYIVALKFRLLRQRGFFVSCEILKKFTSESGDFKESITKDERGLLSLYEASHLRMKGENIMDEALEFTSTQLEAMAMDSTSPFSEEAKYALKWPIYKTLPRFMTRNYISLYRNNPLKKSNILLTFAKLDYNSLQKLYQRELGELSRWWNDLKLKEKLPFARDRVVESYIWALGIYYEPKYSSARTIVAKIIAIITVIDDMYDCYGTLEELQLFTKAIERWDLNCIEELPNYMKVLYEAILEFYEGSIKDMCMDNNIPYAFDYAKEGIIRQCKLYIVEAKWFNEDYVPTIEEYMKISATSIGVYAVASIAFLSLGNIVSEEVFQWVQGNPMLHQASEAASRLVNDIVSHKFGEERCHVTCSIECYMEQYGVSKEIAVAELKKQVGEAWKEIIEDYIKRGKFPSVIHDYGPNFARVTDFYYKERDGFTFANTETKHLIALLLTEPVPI
# [7] = biological target: T7, CsTPS22 (Cucumis sativus, UniProt A0A0A0L2I8); conditions: 30 °C, 60 min; 10 µM substrate
# T7 construct: gene Csa_3G097540; full-length cDNA in pACYCDuet, E. coli BL21(DE3)
# T7 sequence (A0A0A0L2I8 1-558): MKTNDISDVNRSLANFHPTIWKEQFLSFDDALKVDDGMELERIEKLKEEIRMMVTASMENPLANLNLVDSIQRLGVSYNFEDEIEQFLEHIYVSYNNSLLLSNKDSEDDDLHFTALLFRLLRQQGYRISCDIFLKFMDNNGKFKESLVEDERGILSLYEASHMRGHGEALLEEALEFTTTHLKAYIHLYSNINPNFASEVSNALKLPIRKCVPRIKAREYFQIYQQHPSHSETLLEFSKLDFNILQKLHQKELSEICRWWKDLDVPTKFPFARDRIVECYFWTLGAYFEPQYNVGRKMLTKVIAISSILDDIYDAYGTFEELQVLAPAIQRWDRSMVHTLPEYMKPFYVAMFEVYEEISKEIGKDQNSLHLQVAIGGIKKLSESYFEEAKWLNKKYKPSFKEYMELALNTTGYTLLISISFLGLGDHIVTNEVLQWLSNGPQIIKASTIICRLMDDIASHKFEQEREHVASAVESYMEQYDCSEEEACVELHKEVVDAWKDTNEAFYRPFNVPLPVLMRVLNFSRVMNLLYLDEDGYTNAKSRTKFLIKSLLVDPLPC
SMILES,"product formation, stir-bar GC-MS, recombinant E. coli protein [1]","product formation, stir-bar GC-MS, recombinant E. coli protein [2]","product formation, stir-bar GC-MS, recombinant E. coli protein [3]","product formation, stir-bar GC-MS, recombinant E. coli protein [4]","product formation, stir-bar GC-MS, recombinant E. coli protein [5]","product formation, stir-bar GC-MS, recombinant E. coli protein ([1]; 10 µM substrate)","product formation, stir-bar GC-MS, recombinant E. coli protein [6]","product formation, stir-bar GC-MS, recombinant E. coli protein [7]"
CC(C)=CCC/C(C)=C/CC/C(C)=C/CC/C(C)=C/COP(=O)(O)OP(=O)(O)O [GGPP],only CsTPS24 accepted GGPP to produce geranyl linalool,,,,,,,
CC(C)=CCC/C(C)=C/COP(=O)(O)OP(=O)(O)O [GPP],,"CsTPS11 and CsTPS15 both catalysed the formation of myrcene, limonene","CsTPS11 and CsTPS15 both catalysed the formation of myrcene, limonene","CsTPS19 which efficiently catalysed the formation of (E)‐β‐ocimene, myrcene and linalool from GPP",,,,
CC(C)=CCC/C(C)=C/CC/C(C)=C/COP(=O)(O)OP(=O)(O)O [FPP],,,,"CsTPS19 predominantly catalysed the formation of (E,E)‐α‐farnesene from FPP","CsTPS12, CsTPS14 and CsTPS17, which all catalysed the formation of (E)‐β‐farnesene",both enzymes produced (E)‐nerolidol from FPP,"CsTPS12, CsTPS14 and CsTPS17, which all catalysed the formation of (E)‐β‐farnesene",the major products of CsTPS22 were (E)‐nerolidol and cadinol
